According to US9931309B2, “Curcumin-sophorolipid complex” (COUNCIL OF SCIENTIFIC & INDUSTRIAL RESEARCH, priority 2014, dated 2018):

Tests used:
[1] = Zeta potential; format: physicochemical; conditions: dispersions without any dilution
Procedure: The surface charges of the SL(A), Cur and SL(A)+Cur were determined using a zeta potential analyzer (Brookhaven Instruments Corporation, NY). The average zeta potentials of the nano self-assembly dispersions were determined without any dilution.

[2] = system: MCF-7 cells; experiment: cells; format: cell-based
Procedure: (§1) All the experiments were performed in triplicates and repeated twice and the data has been presented as mean±SD. Statistical analysis was conducted with the Graph Pad 4 prism program using one-way ANOVA. The p values used for comparisons were <0.05. IC50 values were calculated using Kyplot software.
(§2) In order to determine whether acidic sophorolipid enhanced the bioavailability of Curcumin in cancerous cell lines, the cytotoxic potential of the aqueous SL(A)+Cur complex was tested in breast cancer lines MCF-7 and MDA-MB-231 and was compared with that of aqueous SL(A), Cur in water, and Cur dissolved in ethanol, the latter was used as a positive control.
(§3) Cyto-toxicity analysis of the present curcumin-SL(A) complex was performed using mammalian breast cancer cell lines by the MTT dye uptake assay. […] MTT solution (5 mg/ml) was added to each well and the cells were cultured for another 4 h at 37° C. in a 5% CO2 incubator. The formazan crystals formed were dissolved by addition of 90 μL of SDS-DMF (20% SDS in 50% DMF). After 15 min, the concentration of colored formazan derivative was determined by measuring optical density (OD) using the ELISA microplate reader (Biorad, Hercules, Calif.) at 570 nm (OD: 570-630 nm). The percentage viability was calculated as: % Viability=[OD of treated cells/OD of control cells]×100 Percentage Viability Observed Post Treatment

[3] = system: MDA-MB-231 cells; experiment: MTT cytotoxicity assay in MDA-MB-231 cells; format: cell-based
Procedure: as §1, §2, §3

[4] = Dynamic Light Scattering (DLS) measurements, particle size; format: physicochemical; conditions: 10 mg dissolved in 10 ml H2O
Procedure: The Dynamic Light Scattering (DLS) measurements were carried using the out on Brookhaven Instrument model 90 Plus Particle Size Analyzer. The solutions, i.e. Cur, SL(A) and the present SL(A)+Curcumin nano-assembly were analyzed at a constant shutter opening diameter in the DLS apparatus. […] This was also confirmed with the results obtained by SEM and TEM analysis depicted in FIG. 4. Field emission scanning electron microscopy images acquired on FEI QUANTA 200 microscope, equipped with a tungsten filament gun, operating at WD 10.6 mm and 20 kV. A 10 μL aliquot of all three sample solution were placed on silicon wafer and fixed on copper stubs with help of carbon tape. The samples were dried at room temperature for overnight and images were recorded without gold coating.

[5] = Appearance / solubilization of aqueous test solutions; format: physicochemical; conditions: 100 μg/ml
Procedure: Optical properties of the present complex SL(A)+ curcumin complex were determined by UV-Vis and Photoluminescence studies analysis. Accordingly, the optical properties of SL(A), curcumin and the present sophorolipid-curcumin (SL(A)+Cur) self-assembly were compared. UV-Vis absorption spectra were recorded on Varian CARY 100 Bio UV-Vis spectrophotometer respectively, with 10 mm quartz cell at 25±0.1° C. For recording the spectra, 3 ml solutions of SL(A), Cur and SL(A)+Cur solution were prepared with having a concentration of 100 μg/ml. The solutions of this were mixed gently and subsequently the spectra were recorded.
Visible differences in the appearance of each of the test solutions were observed.

SMILES: COc1cc(/C=C/C(=O)CC(=O)/C=C/c2ccc(O)c(OC)c2)ccc1O [Cur, diferuloylmethane]
- zeta potential [1]: −15.14 mV
- viability at 5 µg/mL ([2]; Homo sapiens, MCF7): 100%
- viability at 10 µg/mL ([2]; Homo sapiens, MCF7): 100%
- viability at 20 µg/mL ([2]; Homo sapiens, MCF7): 100%
- viability at 40 µg/mL ([2]; Homo sapiens, MCF7): 95%
- viability at 80 µg/mL ([2]; Homo sapiens, MCF7): 93%
- viability at 120 µg/mL ([2]; Homo sapiens, MCF7): 91%
- activity against the cancerous cell lines ([2]; MCF-7): no activity
- concentration from which anticancer activity (growth inhibition) commences ([2]; MCF-7, FIG. 7(a), for the complex as concentration of Cur): 40 µg/mL
- relative toxicity at low to moderate dose ([2]; MCF-7, low to moderate dose range (5-20 μg/ml)): more toxic
- concentration at which cytotoxicity is exhibited [3]: 20 µg/mL
- activity against the cancerous cell lines ([3]; MDA-MB-231): no activity
- % viability ([3]; MDAMB 231, 5 μg/ml): 100%
- % viability ([3]; MDAMB 231, 10 μg/ml): 100%
- % viability ([3]; MDAMB 231, 20 μg/ml): 100%
- % viability ([3]; MDAMB 231, 40 μg/ml): 95%
- % viability ([3]; MDAMB 231, 80 μg/ml): 93%
- % viability ([3]; MDAMB 231, 120 μg/ml): 91%
- hydrodynamic radius [4]: about 818 nm
- hydrodynamic radius ([4]; listed as Curcumin): 818.6 nm
- appearance of the solution [5]: turbid
